Read-outs that look alike come from different tables or passages of the source. Where a SMILES comes first, the peptide text is derived from it.
How the values were obtained:
[1] = test system: SMAD7, SMAD family member 7; settings: cited from earlier work
[2] = test system: BMP2, bone morphogenetic protein 2; settings: cited from earlier work
ASPN, Asporin = settings: cited from earlier work
[3] = target: PLAU, plasminogen activator, urokinase (Homo sapiens, UniProt P00749); settings: cited from earlier work
[4] = test system: SMAD3, SMAD family member 3; settings: cited from earlier work
[5] = test system: TGFBR2, transforming growth factor, β receptor II (70/80 kDa); settings: cited from earlier work
[6] = test system: TIMP1, metallopeptidase inhibitor 1; settings: cited from earlier work
[7] = target: T1, PLOD2, procollagen-lysine, 2-oxoglutarate 5-dioxygenase 2 (Homo sapiens, UniProt O00469); settings: cited from earlier work
T1 sequence (O00469 26-737): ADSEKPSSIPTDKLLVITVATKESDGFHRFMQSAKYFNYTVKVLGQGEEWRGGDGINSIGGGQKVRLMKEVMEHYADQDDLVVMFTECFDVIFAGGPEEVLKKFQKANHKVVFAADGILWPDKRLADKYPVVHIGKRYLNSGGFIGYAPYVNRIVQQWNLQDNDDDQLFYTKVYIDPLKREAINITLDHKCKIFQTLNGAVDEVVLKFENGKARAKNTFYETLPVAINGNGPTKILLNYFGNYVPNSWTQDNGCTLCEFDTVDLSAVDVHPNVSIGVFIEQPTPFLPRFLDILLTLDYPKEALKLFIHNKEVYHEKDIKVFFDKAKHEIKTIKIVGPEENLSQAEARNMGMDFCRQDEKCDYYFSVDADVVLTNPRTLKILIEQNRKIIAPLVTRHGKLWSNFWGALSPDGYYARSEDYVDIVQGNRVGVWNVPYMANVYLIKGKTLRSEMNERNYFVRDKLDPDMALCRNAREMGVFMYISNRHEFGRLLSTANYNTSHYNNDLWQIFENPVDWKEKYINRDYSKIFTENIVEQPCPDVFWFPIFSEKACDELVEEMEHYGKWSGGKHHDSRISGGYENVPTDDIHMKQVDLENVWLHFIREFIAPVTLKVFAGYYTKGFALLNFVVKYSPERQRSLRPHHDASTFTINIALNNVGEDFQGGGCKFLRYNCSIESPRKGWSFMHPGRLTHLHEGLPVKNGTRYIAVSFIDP

[8] = target: T2, LYZ, lysozyme (renal amyloidosis) (Homo sapiens, UniProt P61626); settings: cited from earlier work
T2 sequence (P61626 19-148): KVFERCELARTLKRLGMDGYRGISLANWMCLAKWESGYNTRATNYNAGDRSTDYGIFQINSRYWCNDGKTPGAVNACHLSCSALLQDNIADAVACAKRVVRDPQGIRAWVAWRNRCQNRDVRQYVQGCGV

[9] = test system: reconstructed pigmented skin (RPS); assay: Stimulation of pigmentation of reconstructed pigmented skin by treatment with TGF-beta; format: cell-based; settings: 200 pg/mL TGF-β1 on equivalent dermis for 3 days, compared with control
Method: FIG. 1: This figure illustrates the Reconstructed Pigmented Skin (RPS) treatment protocol using TGF-β. In the diagram, T means “treatment with TGF-β”, in a concentration of 200 pg/mL, with 4 mM of HCl and 1 mg/mL of BSA as the vehicle. The medium was MEM 3F′ with 2% FBS. The equivalent derma were treated for 3 consecutive days. On D0i, the equivalent dermis was seeded with keratinocytes and melanocytes (K+M on the graph) and kept immersed for 7 days. The culture was then emersed for 2 weeks;
The treatment protocol for reconstructed pigmented skin (RPS) with TGF-β is illustrated in FIG. 1. It was as follows:
Equivalent dermis (lattices) containing live fibroblasts in a collagen matrix were attached to the bottom of a Petri dish (D-4) and treated with TGF-β1 (T on FIG. 1) in a concentration of 200 pg/mL (vehicle: 4 mM of HCl and 1 mg/mL of BSA; medium: MEM 3F′ with 2% FBS), for 3 days (D-3; D-2 and D-1 in FIG. 1). Next, the pigmented epidermis was reconstructed on the equivalent dermis by seeding keratinocytes and melanocytes (D0). The culture was kept immersed for 1 week and emersed for 2 weeks (FIG. 1).
Samples were removed to analyse the pigmentation: • integration and morphology of melanocytes were observed after Dopa reaction on detached epidermis; • colorimetric luminance measurement provided information regarding the degree of clarity of the samples (the lower the L*, the darker the samples); • the presence of melanin was observed after Fontana Masson staining skin sections; and • the quantity of melanin present in the epidermis was measured by image analysis.

MATN2, matrilin 2 = settings: cited from earlier work

O=CC(=O)C[C@H](O)[C@H](O)CO [3-deoxyglucosone]
Sense of modulation: SMAD7 expression [1]: Increases

Cc1cc(SCc2sc(-c3ccc(C(F)(F)F)c(F)c3)nc2C)ccc1OCC(=O)O [GW0742]
Sense of modulation: BMP2 expression [2]: Reduces exp.
Sense of modulation: BMP2 expression ([2]; listed as GW-0742): reduces

N#Cc1ccc(C(c2ccc(C#N)cc2)n2cncn2)cc1 [Letrozole]
Sense of modulation: ASPN expression (ASPN, Asporin): Increases

CC(=O)N[C@@H](CO)C(=O)N[C@@H](CC(=O)O)C(=O)N[C@@H](CCCCN)C(=O)N1CCC[C@H]1C(=O)O [N-acetyl-seryl-aspartyl-lysyl-proline] (Ac-SDKP-OH)
Sense of modulation: SMAD7 expression [1]: Increases

CC(C)=CCC[C@](C)(O[C@@H]1O[C@H](CO)[C@@H](O)[C@H](O)[C@H]1O)[C@H]1CC[C@]2(C)[C@@H]1[C@H](O)C[C@@H]1[C@@]3(C)CC[C@H](O)C(C)(C)[C@@H]3[C@@H](O[C@@H]3O[C@H](CO)[C@@H](O)[C@H](O)[C@H]3O[C@@H]3OC[C@@H](O)[C@H](O)[C@H]3O)C[C@]12C [Notoginsenoside R1]
Sense of modulation: PLAU expression [3]: Increases

O=C1CCC[C@@H]2[C@H]3CCC[N+]4([O-])CCC[C@@H](CN12)[C@@H]34 (some centres unmarked) [Oxymatrine]
modulation of SMAD3 ('reduces SMAD3', level not given) [4]: reduces
Sense of modulation: SMAD7 expression [1]: Increases

N=C(N)c1ccc(N)cc1 [P-aminobenzamidine]
Sense of modulation: PLAU activity [3]: Reduces activity
Sense of modulation: PLAU activity ([3]; listed as p-aminobenzamidine): reduces

NC(=O)c1ccc(-c2nc(-c3ccc4c(c3)OCO4)c(-c3ccccn3)[nH]2)cc1 [SB-431542]
Sense of modulation: SMAD3 expression [4]: Reduces
modulation of SMAD3 ('reduces SMAD3', level not given) [4]: reduces

O=C(/C=C/c1ccc(O)c2c1[C@H](C(=O)O[C@H](Cc1ccc(O)c(O)c1)C(=O)O)[C@@H](c1ccc(O)c(O)c1)O2)O[C@H](Cc1ccc(O)c(O)c1)C(=O)O [Salvianolic Acid B (Sal B), Salvianolic Acid B]
Sense of modulation: SMAD3 expression [4]: Reduces
modulation of SMAD3 ('reduces SMAD3', level not given) [4]: reduces
Sense of modulation: TGFBR2 expression [5]: reduces
Sense of modulation: TGFBR2 expression ([5]; listed as Salvianolic acid B (SA-B)): Reduces

O=C([O-])Cc1ccccc1.[Na+] [Sodium phenylacetate (NaPA), Sodium phenylacetate]
Sense of modulation: PLAU expression [3]: Reduces
Sense of modulation: PLAU expression ([3]; listed as NaPA): reduces

COC(=O)[C@@H](c1ccccc1Cl)N1CCc2sccc2C1 [Thienopyridine SR 25989]
Sense of modulation: PLAU expression [3]: Increases

CCCCC(=O)N(Cc1ccc(-c2ccccc2-c2nnn[nH]2)cc1)[C@H](C(=O)O)C(C)C [Valsartan]
Sense of modulation: TIMP1 expression [6]: Reduces
Sense of modulation: TIMP1 expression ([6]; listed as valsartan): reduces

CC(C)(C#N)c1cc(Cn2cncn2)cc(C(C)(C)C#N)c1 [anastrozole]
Sense of modulation: ASPN expression (ASPN, Asporin): Increases

N#CCCN [beta-aminopropionitrile (bAPN), beta-aminopropionitrile]
Sense of modulation: PLOD2 expression [7]: Reduces

PACAP38: form of pituitary adenylate cyclase-activating polypeptide listed beneath PACAP
Sense of modulation: LYZ expression [8]: Increases

TGF-β1: Transforming growth factor beta 1 used to treat equivalent dermis at 200 pg/mL
integration and morphology of melanocytes (Dopa reaction on detached epidermis) [9]: still present in the epidermis and retain the correct dendritic morphology
melanin content (Fontana Masson stained sections, quantification by image analysis) [9]: visibly increased
melanin deposits in the epidermis [9]: higher
luminance of the samples (L*) ([9]; lower L* = darker): reduced

Vitamin K2 menaquinone
Sense of modulation: MATN2 expression (MATN2, matrilin 2): Increases

Reference: US20150307940A1, “MOLECULAR SIGNATURE OF CUTANEOUS PIGMENTARY SPOTS, ASSOCIATED WITH THE EXTRACELLULAR MATRIX” (L'OREAL, priority 2011, published 2015)
